Patent publication US20120035206A1, “PREPARATION AND APPLICATION OF NOVEL ANTIBACTERIAL AND ANTICANCER COMPOUNDS AND THEIR DERIVATIVES” (priority 2009, published 2012)
≈ marks a conversion by molar mass, not a printed value.

What was measured:
Assay type in all cases: cell-based
C. Krusei = experiment: In vitro antibacterial (antifungal) test, two-fold dilution MIC; details: Pichia kudriavzevii, RPMI 1640, culture 2-7 days
Experimental: (§1) In vitro antibacterial experiments of 25 compounds as anti-bacterial and anti-cancer compounds in the patent were tested using 14 kinds of bacteria. Tested bacteria: C. albicans, C. tropicalis, C. neoformans, E. floccosum, M. gypseum, A. niger, S. schenekn, C. parapsilosis, C. glabrata, C. Krusei, Trichoderma, Gibberella, Setrosphaeria turcica, Fusarium Oxysporum Vasinfectum. (Bacteria were from the Dermatology Hospital of Chinese Academy of Medical Sciences, Nanjing, China.)
(§2) The Preparation of tested Bacteria solution was following: incubated Bacteria were added to 5 ml physiological saline, and then they were mashed and placed with ultrasound. The solution was fully mixed, and insoluble substances were removed. The treated solution was called the original bacterium solution. In the test, the bacteria concentration in the original bacterium solution was adjusted to […].
(§3) Tested Methods: the tested compounds were dissolved in dimethyl sulfoxide. and the solution was diluted with sterile distilled water. And the distilled solution was added to sterilized RPMI 1640 medium. The concentration of the compounds were adjusted to 256, 128, 64, 32, 16, 8, 4, 2, 1, 0.5, 0.25, 0.125 ug*ml-1. Then the adjusted solutions were inoculated with tested bacteria, and the tested systems were placed in the constant temperature oven to culture for 2-7 days. The concentration at which there was no growing of fungi was taken as the minimum inhibitory concentration (MIC).

C. albicans = experiment: as above; details: Candida albicans, read-out: MIC C. albicas
Experimental: as §1, §2, §3

C. glabrata = experiment: as above; details: Nakaseomyces glabratus, RPMI 1640, culture 2-7 days
Experimental: as §1, §2, §3

C. neoformans = experiment: as above; details: Cryptococcus neoformans, RPMI 1640, culture 2-7 days
Experimental: as §1, §2, §3

C. parapsilosis = experiment: as above; details: Lodderomyces parapsilosis, RPMI 1640, culture 2-7 days
Experimental: as §1, §2, §3

C. tropicalis = experiment: as above; details: Candida tropicalis, RPMI 1640, culture 2-7 days
Experimental: as §1, §2, §3

[1] = test system: Fusarium oxysporum vasinfectum; experiment: as above; details: RPMI 1640, culture 2-7 days
Experimental: as §1, §2, §3

M. gypseum = experiment: as above; details: Nannizzia gypsea, RPMI 1640, culture 2-7 days
Experimental: as §1, §2, §3

S. schenekn = experiment: as above; details: RPMI 1640, culture 2-7 days
Experimental: as §1, §2, §3

Setosphaeria turcica = experiment: as above; details: Exserohilum turcicum, RPMI 1640, culture 2-7 days
Experimental: as §1, §2, §3

Terchoderma = experiment: as above; details: Trichoderma, RPMI 1640, culture 2-7 days
Experimental: as §1, §2, §3

gibberella = experiment: as above; details: RPMI 1640, culture 2-7 days
Experimental: as §1, §2, §3

A375 = experiment: In vitro anticancer MTT experiment; details: Homo sapiens, A-375, concentration 5 ug/ml, 48 h or 72 h, read-out: inhibition ratio A375
Experimental: (§4) In vitro anticancer experiments of 25 compounds as anti-bacterial and anti-cancer compounds in the patent were tested. In the test, 14 kinds of cancer cells were used as tested cancer cells. And the results obtained by MTT method were shown in table 2 (the inhibition ratio was obtained when the concentration was 5 ug/ml). Tested Cancer Cells: SGC7901, HTB-38HT-29, CRL-2233NU-398, CRL-1469PANC-1, B0192, HTB-131MDA-453, CRL-1435PC-3, FTC133, AS24391, HTB-95637. (Cancer cells were from Chinese Military Academy of Medical Sciences). Cells Culture: Culture solution was composed of RPMI 1640 medium, 10% (VAT) Fetal calf serum and 0.01% L-glutamine. Cultured cells were maintained at 37° C. in an incubator with 5% CO2. The cells at logarithmic growth phase were used in the experiment. MTT Experiment: Single cell suspension was obtained by digesting cells with 0.25% trypsin. The cells at logarithmic growth phase were collected and seeded in a 96-well plate at a concentration of 6000-7000 cells per well. After culturing for 12 h at 37° C. in the incubator with 5% CO2, the cells were again incubated with the tested compounds of various concentrations for 48 h or 72 h. Pure cultures and cells without drug were taken as blank reference and negative reference, and 8 Wells of each group were taken. Twenty microliter of MTT (5 mg/mL) was added to each well, and the mixed solutions were incubation for 4 h. The formazan product was dissolved by dimethyl sulfoxide (DMSO, 150 μL), and the optical density (O.D.) was read at 570 nm. The Inhibition Ratio was calculated by the following formula: Inhibition Ratio=(Anegative control−Asample)/(Anegative control−Ablank control)

AS24391 = experiment: In vitro anticancer MTT experiment; details: concentration 5 ug/ml, 48 h or 72 h, read-out: inhibition ratio AS24391
Experimental: as §4

B01092 = experiment: In vitro anticancer MTT experiment; details: concentration 5 ug/ml, 48 h or 72 h, read-out: inhibition ratio B01092
Experimental: as §4

CRL-1435PC-3 = experiment: In vitro anticancer MTT experiment; details: concentration 5 ug/ml, 48 h or 72 h, read-out: inhibition ratio CRL-1435PC-3
Experimental: as §4

CRL-1469PANC-1 = experiment: In vitro anticancer MTT experiment; details: concentration 5 ug/ml, 48 h or 72 h, read-out: inhibition ratio CRL-1469PANC-1
Experimental: as §4

CRL-2233SNU-398 = experiment: In vitro anticancer MTT experiment; details: concentration 5 ug/ml, 48 h or 72 h, read-out: inhibition ratio CRL-2233SNU-398
Experimental: as §4

FTC 133 = experiment: In vitro anticancer MTT experiment; details: Homo sapiens, concentration 5 ug/ml, 48 h or 72 h, read-out: inhibition ratio FTC 133
Experimental: as §4

HTB-95637 = experiment: In vitro anticancer MTT experiment; details: concentration 5 ug/ml, 48 h or 72 h, read-out: inhibition ratio HTB-95637
Experimental: as §4

L1210 = experiment: In vitro anticancer MTT experiment; details: Mus musculus, concentration 5 ug/ml, 48 h or 72 h, read-out: inhibition ratio L1210
Experimental: as §4

L428 = experiment: In vitro anticancer MTT experiment; details: Homo sapiens, L-428, concentration 5 ug/ml, 48 h or 72 h, read-out: inhibition ratio L428
Experimental: as §4

SGC7901 = experiment: In vitro anticancer MTT experiment; details: Homo sapiens, SGC-7901, concentration 5 ug/ml, 48 h or 72 h, read-out: inhibition ratio SGC7901
Experimental: as §4

E. floccosum = experiment: In vitro antibacterial (antifungal) test, two-fold dilution MIC; details: Epidermophyton floccosum, RPMI 1640, culture 2-7 days
Experimental: as §1, §2, §3

HTB-131MDA-MB-453 = experiment: In vitro anticancer MTT experiment; details: concentration 5 ug/ml, 48 h or 72 h, read-out: inhibition ratio HTB-131MDA-MB-453
Experimental: as §4

HTB-38HT-29 = experiment: In vitro anticancer MTT experiment; details: concentration 5 ug/ml, 48 h or 72 h, read-out: inhibition ratio HTB-38HT-29
Experimental: as §4

HTB-94 = experiment: In vitro anticancer MTT experiment; details: concentration 5 ug/ml, 48 h or 72 h, read-out: inhibition ratio HTB-94
Experimental: as §4

| SMILES | MIC (C. Krusei) [µg/mL] | MIC (C. albicans) [µg/mL] | MIC (C. glabrata) [µg/mL] | MIC (C. neoformans) [µg/mL] | MIC (C. parapsilosis) [µg/mL] | MIC (C. tropicalis) [µg/mL] | MIC [1] [µg/mL] | MIC (M. gypseum) [µg/mL] | MIC (S. schenekn) [µg/mL] | MIC (Setosphaeria turcica) [µg/mL] | MIC (Terchoderma) [µg/mL] | MIC (gibberella) [µg/mL] | inhibition at 5 µg/mL (A375) [%] | inhibition at 5 µg/mL (AS24391) [%] | inhibition at 5 µg/mL (B01092) [%] | inhibition at 5 µg/mL (CRL-1469PANC-1) [%] | inhibition at 5 µg/mL (FTC 133) [%] | inhibition at 5 µg/mL (L1210) [%] | inhibition at 5 µg/mL (L428) [%] | inhibition at 5 µg/mL (SGC7901) [%] | other results |
| --- | --- | --- | --- | --- | --- | --- | --- | --- | --- | --- | --- | --- | --- | --- | --- | --- | --- | --- | --- | --- | --- |
| Cc1ccc2c(c1)C(=O)/C(=C/Cl)CS2 [Compound 5, (Z)-3-(chloromethylene)-6-methylthiochroman-4-one] | 4 (≈ 17.8 µM) | 8 (≈ 35.6 µM) | 2 (≈ 8.9 µM) | 0.5 (≈ 2.23 µM) | 8 (≈ 35.6 µM) | 32 (≈ 142 µM) | 8 (≈ 35.6 µM) | 4 (≈ 17.8 µM) | 8 (≈ 35.6 µM) | 8 (≈ 35.6 µM) | 32 (≈ 142 µM) | 16 (≈ 71.2 µM) | 65.9 | 49.8 | 58 | 40.9 | 60.2 | 87.6 | 46.8 | 62.1 | inhibition at 5 µg/mL (CRL-1435PC-3): 55.6%; inhibition at 5 µg/mL (CRL-2233SNU-398): 60.1%; inhibition at 5 µg/mL (HTB-95637): 76.6% |
| O=C1/C(=C/Cl)SCc2ccc(F)cc21 [Compound 15, (Z)-3-(chloromethylene)-6-fluoroisothiochroman-4-one] | 32 (≈ 140 µM) | 8 (≈ 35 µM) | 4 (≈ 17.5 µM) | 32 (≈ 140 µM) | 16 (≈ 70 µM) | 4 (≈ 17.5 µM) | 8 (≈ 35 µM) | 4 (≈ 17.5 µM) | 32 (≈ 140 µM) | 16 (≈ 70 µM) | 32 (≈ 140 µM) | 16 (≈ 70 µM) | 60.2 | 46.8 | 49.5 | 36.8 | 45.9 | 80.9 | 55.4 | 47.6 | MIC (E. floccosum): 8 µg/mL (≈ 35 µM); inhibition at 5 µg/mL (CRL-2233SNU-398): 45%; inhibition at 5 µg/mL (HTB-131MDA-MB-453): 58%; inhibition at 5 µg/mL (HTB-38HT-29): 57%; inhibition at 5 µg/mL (HTB-94): 60.5% |
| Cc1cc2c(cc1F)CS/C(=C\Br)C2=O [Compound 16, (Z)-3-(bromomethylene)-7-fluoro-6-methylisothiochroman-4-one] | 32 (≈ 111 µM) | 32 (≈ 111 µM) | 4 (≈ 13.9 µM) | 4 (≈ 13.9 µM) | 4 (≈ 13.9 µM) | 32 (≈ 111 µM) | 16 (≈ 55.7 µM) | 16 (≈ 55.7 µM) | 8 (≈ 27.9 µM) | 32 (≈ 111 µM) | 16 (≈ 55.7 µM) | 32 (≈ 111 µM) | 30.5 | 57.8 | 60.4 | 57.9 | 46.5 | 85.9 | 43.1 | 56.7 | MIC (E. floccosum): 16 µg/mL (≈ 55.7 µM); inhibition at 5 µg/mL (CRL-1435PC-3): 56.9%; inhibition at 5 µg/mL (HTB-131MDA-MB-453): 46.3%; inhibition at 5 µg/mL (HTB-38HT-29): 48%; inhibition at 5 µg/mL (HTB-94): 63.2%; inhibition at 5 µg/mL (HTB-95637): 36% |
